Test results as given in patent US10711000B2 (Fronthera U.S. Pharmaceuticals LLC, priority 2018, dated 2020).
Like-named read-outs stand apart in the source and are kept apart here.

Target: T1, Autotaxin (Homo sapiens, UniProt Q13822)
T1 construct: from tissue; host or cells: pooled human plasma
Test: LPA formation in pooled human plasma (ex vivo autotaxin inhibition)
Assay type: biochemical
Settings: 2 hours incubation
In short: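 Pooled human plasma incubated 2 h with various compound concentrations; LPA 18:2 and 20:4 quantified by LC/MS/MS (negative-ion MRM, LPA17:0 internal standard) after butanol extraction. Inhibition of LPA formation relative to untreated plasma; IC50 by non-linear regression.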

[1] = LPA 18:2 by LC/MS/MS, read-out: LPA formation (18:2) (IC50)
[2] = LPA 20:4 by LC/MS/MS, read-out: LPA formation (20:4) (IC50)

SMILES | IC50 [1] [nM] | IC50 [2] [nM]
CCc1nn2c(C)cc(N3CC4(C3)CN(c3ncco3)C4)cc2c1N(C)c1nc(-c2ccc(F)cc2)c(C#N)s1 [Example 35, 2-((2-ethyl-7-methyl-5-(6-(oxazol-2-yl)-2,6-diazaspiro[3.3]heptan-2-yl)pyrazolo[1,5-a]pyridin-3-yl)(methyl)amino)-4-(4-fluorophenyl)thiazole-5-carbonitrile] | 100 to 500 | 100 to 500
CCc1nn2c(C)cc(N3CC4(CN(C(=O)N5CCN(C)CC5)C4)C3)cc2c1N(C)c1nc(-c2ccc(F)cc2)c(C#N)s1 [Example 32, 2-((2-ethyl-7-methyl-5-(6-(4-methylpiperazine-1-carbonyl)-2,6-diazaspiro[3.3]heptan-2-yl)pyrazolo[1,5-a]pyridin-3-yl)(methyl)amino)-4-(4-fluorophenyl)thiazole-5-carbonitrile] | ≤ 100 | ≤ 100
[2H]c1cc(N2CCN(CC(=O)N3CC(O)C3)CC2)cc2c(N(C)c3nc(-c4ccc(F)cc4)c(C#N)s3)c(CC)nn12 [Example 19, 2-((2-ethyl-5-(4-(2-(3-hydroxyazetidin-1-yl)-2-oxoethyl)piperazin-1-yl)pyrazolo[1,5-a]pyridin-3-yl-7-d)(methyl)amino)-4-(4-fluorophenyl)thiazole-5-carbonitrile] | ≤ 100 | ≤ 100
CCc1nn2ccc(N3CCC4(CC3)CN(C(=O)N3CC(O)C3)C4)cc2c1N(C)c1nc(-c2ccc(F)cc2)c(C#N)s1 [Example 12, 2-((2-ethyl-5-(2-(3-hydroxyazetidine-1-carbonyl)-2,7-diazaspiro[3.5]nonan-7-yl)pyrazolo[1,5-a]pyridin-3-yl)(methyl)amino)-4-(4-fluorophenyl)thiazole-5-carbonitrile] | ≤ 100 | ≤ 100
CCc1nn2ccc(N3CCN(CC(=O)N4CC(CO)C4)CC3)cc2c1N(C)c1nc(-c2ccc(F)cc2)c(C#N)s1 [Example 4, 2-((2-ethyl-5-(4-(2-(3-(hydroxymethyl)azetidin-1-yl)-2-oxoethyl)piperazin-1-yl)pyrazolo[1,5-a]pyridin-3-yl)(methyl)amino)-4-(4-fluorophenyl)thiazole-5-carbonitrile] | ≤ 100 | ≤ 100
CCc1nn2c(C)cc(N3CC4(CN(C(=O)[C@H]5COC[C@@H]5O)C4)C3)cc2c1N(C)c1nc(-c2ccc(F)cc2)c(C#N)s1 (stereo in doubt) [Example 59, 2-((2-ethyl-5-(6-(4-hydroxytetrahydrofuran-3-carbonyl)-2,6-diazaspiro[3.3]heptan-2-yl)-7-methylpyrazolo[1,5-a]pyridin-3-yl)(methyl)amino)-4-(4-fluorophenyl)thiazole-5-carbonitrile] | 100 to 500 | 100 to 500
CCc1nn2c(C)cc(N3CCN(CC(=O)N4CC[C@H](O)C4)CC3)cc2c1N(C)c1nc(-c2ccc(F)cc2)c(C#N)s1 [Example 26, (S)-2-((2-ethyl-5-(4-(2-(3-hydroxypyrrolidin-1-yl)-2-oxoethyl)piperazin-1-yl)-7-methylpyrazolo[1,5-a]pyridin-3-yl)(methyl)amino)-4-(4-fluorophenyl)thiazole-5-carbonitrile] | 100 to 500 | 100 to 500
CCc1nn2c(C)cc(N3CCN(CC(=O)N4CC(CO)C4)CC3)cc2c1N(C)c1nc(-c2ccc(F)cc2)c(C#N)s1 [Example 27, 2-((2-ethyl-5-(4-(2-(3-(hydroxymethyl)azetidin-1-yl)-2-oxoethyl)piperazin-1-yl)-7-methylpyrazolo[1,5-a]pyridin-3-yl)(methyl)amino)-4-(4-fluorophenyl)thiazole-5-carbonitrile] | ≤ 100 | ≤ 100
CN(c1nc(-c2ccc(F)cc2)c(C#N)s1)c1c(C2CC2)nn2ccc(N3CC4(CN(C(=O)[C@H]5CCOC5)C4)C3)cc12 [Example 22, (S)-2-((2-cyclopropyl-5-(6-(tetrahydrofuran-3-carbonyl)-2,6-diazaspiro[3.3]heptan-2-yl)pyrazolo[1,5-a]pyridin-3-yl)(methyl)amino)-4-(4-fluorophenyl)thiazole-5-carbonitrile] | ≤ 100 | ≤ 100

Continued, values first:

IC50 [1] [nM] | IC50 [2] [nM] | SMILES
100 to 500 | 100 to 500 | Cc1cc(N2CCN(C3COCC3O)CC2)cc2c(N(C)c3nc(-c4ccc(F)cc4)c(C#N)s3)c(C3CC3)nn12 (stereo not shown) [Example 92]
≤ 100 | ≤ 100 | Cc1cc(N2CC3(CN(C(=O)C(C)(C)O)C3)C2)cc2c(N(C)c3nc(-c4ccc(F)cc4)c(C#N)s3)c(C3CC3)nn12 [Example 77, 2-((2-cyclopropyl-5-(6-(2-hydroxy-2-methylpropanoyl)-2,6-diazaspiro[3.3]heptan-2-yl)-7-methylpyrazolo[1,5-a]pyridin-3-yl)(methyl)amino)-4-(4-fluorophenyl)thiazole-5-carbonitrile]
≤ 100 | ≤ 100 | Cc1cn2nc(C3CC3)c(N(C)c3nc(-c4ccc(F)cc4)c(C#N)s3)c2cc1N1CCN(CC(=O)N2CC(O)C2)CC1 [Example 100, 2-((2-cyclopropyl-5-(4-(2-(3-hydroxyazetidin-1-yl)-2-oxoethyl)piperazin-1-yl)-6-methylpyrazolo[1,5-a]pyridin-3-yl)(methyl)amino)-4-(4-fluorophenyl)thiazole-5-carbonitrile]
> 1000 | > 1000 | Cc1cc(N2CCN(CC(=O)O)CC2)cc2c(N(C)c3nc(-c4ccc(F)cc4)c(C#N)s3)c(C3CC3)nn12 [Example 80, 2-(4-(3-((5-cyano-4-(4-fluorophenyl)thiazol-2-yl)(methyl)amino)-2-cyclopropyl-7-methylpyrazolo[1,5-a]pyridin-5-yl)piperazin-1-yl)acetic acid]
100 to 500 | 100 to 500 | CCc1nn2c(C)cc(N3CC4C(C3)C4NC(=O)[C@H]3CCOC3)cc2c1N(C)c1nc(-c2ccc(F)cc2)c(C#N)s1 (stereo partly drawn) [Example 64, (3S)—N-(3-(3-((5-cyano-4-(4-fluorophenyl)thiazol-2-yl)(methyl)amino)-2-ethyl-7-methylpyrazolo[1,5-a]pyridin-5-yl)-3-azabicyclo[3.1.0]hexan-6-yl)tetrahydrofuran-3-carboxamide]
> 1000 | > 1000 | CCc1nn2c(C)cc(-c3cnn(C[C@@H](O)CO)c3)cc2c1N(C)c1nc(-c2ccc(F)cc2)c(C#N)s1 [Example 72, (R)-2-((5-(1-(2,3-dihydroxypropyl)-1H-pyrazol-4-yl)-2-ethyl-7-methylpyrazolo[1,5-a]pyridin-3-yl)(methyl)amino)-4-(4-fluorophenyl)thiazole-5-carbonitrile]
100 to 500 | 100 to 500 | Cc1cc(N2CC3(CN(C(=O)C4CCN(C)C4)C3)C2)cc2c(N(C)c3nc(-c4ccc(F)cc4)c(C#N)s3)c(C3CC3)nn12 (stereo not shown) [Example 85, 2-((2-cyclopropyl-7-methyl-5-(6-(1-methylpyrrolidine-3-carbonyl)-2,6-diazaspiro[3.3]heptan-2-yl)pyrazolo[1,5-a]pyridin-3-yl)(methyl)amino)-4-(4-fluorophenyl)thiazole-5-carbonitrile]
100 to 500 | 100 to 500 | Cc1cc(N2CC3(CN(C(=O)C45CC(C4)C5)C3)C2)cc2c(N(C)c3nc(-c4ccc(F)cc4)c(C#N)s3)c(C3CC3)nn12 [Example 91, 2-((5-(6-(bicyclo[1.1.1]pentane-1-carbonyl)-2,6-diazaspiro[3.3]heptan-2-yl)-2-cyclopropyl-7-methylpyrazolo[1,5-a]pyridin-3-yl)(methyl)amino)-4-(4-fluorophenyl)thiazole-5-carbonitrile]
